Assay results taken from paper PMC6081437, “The potency of the broad spectrum bacteriocin, bactofencin A, against staphylococci is highly dependent on primary structure, N-terminal charge and disulphide formation” (Scientific Reports, 2018).
Bridge positions count the residues as written; N and C are the ends. Square brackets hold non-standard residues; d marks the D form. Ends that are not written are not given here. Peptide text beside a SMILES is read from it.

What follows are compounds tested on S. aureus DPC5246. Conditions: DPC5246, pH 6.8.
Assay type: cell-based, Staphylococcus aureus
Method: Peptides were resuspended at 1000 µM in 50 mM sodium phosphate buffer pH 6.8 and checked for purity by MALDI-TOF-MS. Peptides were serially diluted 1 in 4 to give a dilution series of 250, 62.50, 15.63, 3.91, 0.98 and 0.24 µM and assayed by the agar well diffusion assay described by Ryan et al.[19]. Briefly, 50 µl aliquots of each peptide concentration were plated on a S. aureus DPC5246 indicator plate and the plate incubated at 37 °C. Peptide activity (Minimum Inhibitory Concentration (MIC)) was taken as the lowest concentration of peptide to give a zone of inhibition. All assays were performed in triplicate. The dilution series values were rounded to the nearest whole number to give 1000, 250, 63, 16, 4, 1 and 0.25 µM and data is colour coded for ease of interpretation.
With `CSCC[C@@H]1NC(=O)CNC(=O)[C@H]([C@@H](C)O)NC(=O)[C@@H]2CCCN2C(=O)[C@H](CCSC)NC(=O)CNC(=O)[C@H](CC(N)=O)NC(=O)[C@H](CC(N)=O)NC(=O)[C@H](Cc2ccc(O)cc2)NC(=O)[C@H](C(C)C)NC(=O)[C@H](CCCNC(=N)N)NC(=O)[C@@H](NC(=O)[C@H](CCCNC(=N)N)NC(=O)[C@H](Cc2c[nH]cn2)NC(=O)[C@@H](N)CCCCN)CSSC[C@@H](C(=O)O)NC(=O)[C@H](Cc2c[nH]c3ccccc23)NC(=O)[C@H](CCCNC(=N)N)NC(=O)[C@H](Cc2ccc(O)cc2)NC1=O` [K4-C22] (H-KHRCRVYNNGMPTGMYRWC-OH; disulfide 4-19; N-terminus assumed) the “Activity (Minimum Inhibitory Concentration, MIC)” value was 4 µM.
With `CSCC[C@@H]1NC(=O)CNC(=O)[C@H](CC(N)=O)NC(=O)[C@H](CC(N)=O)NC(=O)[C@H](Cc2ccc(O)cc2)NC(=O)[C@H](C(C)C)NC(=O)[C@H](CCCNC(=N)N)NC(=O)[C@@H](NC(=O)[C@H](CCCNC(=N)N)NC(=O)[C@H](Cc2c[nH]cn2)NC(=O)[C@H](CCCCN)NC(=O)[C@H](CCCCN)NC(=O)[C@H](CCCNC(=N)N)NC(=O)[C@@H](N)CCCCN)CSSC[C@@H](C(=O)O)NC(=O)[C@H](Cc2c[nH]c3ccccc23)NC(=O)[C@H](CCCNC(=N)N)NC(=O)[C@H](Cc2ccc(O)cc2)NC(=O)[C@H](CCSC)NC(=O)CNC(=O)[C@H]([C@@H](C)O)NC(=O)[C@H](C)NC1=O` [P15A] (H-KRKKHRCRVYNNGMATGMYRWC-OH; disulfide 7-22) the “Activity (Minimum Inhibitory Concentration, MIC)” value was 1 µM.
In the case of `CSCC[C@@H]1NC(=O)CNC(=O)[C@H]([C@@H](C)O)NC(=O)[C@@H]2CCCN2C(=O)[C@H](CCSC)NC(=O)CNC(=O)[C@H](CC(N)=O)NC(=O)[C@H](CC(N)=O)NC(=O)[C@H](Cc2ccc(O)cc2)NC(=O)[C@H](C(C)C)NC(=O)[C@H](CCCNC(=N)N)NC(=O)[C@@H](NC(=O)[C@H](CCCNC(=N)N)NC(=O)[C@H](Cc2c[nH]cn2)NC(=O)[C@H](CCCCN)NC(=O)[C@H](CCCCN)NC(=O)[C@H](CCCNC(=N)N)NC(=O)[C@@H](N)CCCCN)CSSC[C@H](C(=O)O)NC(=O)[C@H](Cc2c[nH]c3ccccc23)NC(=O)[C@H](CCCNC(=N)N)NC(=O)[C@H](Cc2ccc(O)cc2)NC1=O` [C22Cd] (H-KRKKHRCRVYNNGMPTGMYRW[dC]-OH; disulfide 7-22; N-terminus assumed), the “Activity (Minimum Inhibitory Concentration, MIC)” value is reported as 4 µM.
`CSCC[C@@H]1NC(=O)CNC(=O)[C@H]([C@@H](C)O)NC(=O)[C@@H]2CCCN2C(=O)[C@H](CCSC)NC(=O)CNC(=O)[C@H](CC(N)=O)NC(=O)[C@H](C)NC(=O)[C@H](Cc2ccc(O)cc2)NC(=O)[C@H](C(C)C)NC(=O)[C@H](CCCNC(=N)N)NC(=O)[C@@H](NC(=O)[C@H](CCCNC(=N)N)NC(=O)[C@H](Cc2c[nH]cn2)NC(=O)[C@H](CCCCN)NC(=O)[C@H](CCCCN)NC(=O)[C@H](CCCNC(=N)N)NC(=O)[C@@H](N)CCCCN)CSSC[C@@H](C(=O)O)NC(=O)[C@H](Cc2c[nH]c3ccccc23)NC(=O)[C@H](CCCNC(=N)N)NC(=O)[C@H](Cc2ccc(O)cc2)NC1=O` [N11A] (H-KRKKHRCRVYANGMPTGMYRWC-OH; disulfide 7-22) was tested, and the “Activity (Minimum Inhibitory Concentration, MIC)” value was 16 µM.
With `CSCC[C@@H]1NC(=O)CNC(=O)[C@H]([C@@H](C)O)NC(=O)[C@@H]2CCCN2C(=O)[C@H](CCSC)NC(=O)CNC(=O)[C@H](C)NC(=O)[C@H](CC(N)=O)NC(=O)[C@H](Cc2ccc(O)cc2)NC(=O)[C@H](C(C)C)NC(=O)[C@H](CCCNC(=N)N)NC(=O)[C@@H](NC(=O)[C@H](CCCNC(=N)N)NC(=O)[C@H](Cc2c[nH]cn2)NC(=O)[C@H](CCCCN)NC(=O)[C@H](CCCCN)NC(=O)[C@H](CCCNC(=N)N)NC(=O)[C@@H](N)CCCCN)CSSC[C@@H](C(=O)O)NC(=O)[C@H](Cc2c[nH]c3ccccc23)NC(=O)[C@H](CCCNC(=N)N)NC(=O)[C@H](Cc2ccc(O)cc2)NC1=O` [N12A] (H-KRKKHRCRVYNAGMPTGMYRWC-OH; disulfide 7-22) the “Activity (Minimum Inhibitory Concentration, MIC)” value was 4 µM.
`CSCC[C@@H]1NC(=O)CNC(=O)[C@H]([C@@H](C)O)NC(=O)[C@@H]2CCCN2C(=O)[C@H](CCSC)NC(=O)[C@H](C)NC(=O)[C@H](CC(N)=O)NC(=O)[C@H](CC(N)=O)NC(=O)[C@H](Cc2ccc(O)cc2)NC(=O)[C@H](C(C)C)NC(=O)[C@H](CCCNC(=N)N)NC(=O)[C@@H](NC(=O)[C@H](CCCNC(=N)N)NC(=O)[C@H](Cc2c[nH]cn2)NC(=O)[C@H](CCCCN)NC(=O)[C@H](CCCCN)NC(=O)[C@H](CCCNC(=N)N)NC(=O)[C@@H](N)CCCCN)CSSC[C@@H](C(=O)O)NC(=O)[C@H](Cc2c[nH]c3ccccc23)NC(=O)[C@H](CCCNC(=N)N)NC(=O)[C@H](Cc2ccc(O)cc2)NC1=O` [G13A] (H-KRKKHRCRVYNNAMPTGMYRWC-OH; disulfide 7-22) was tested, and the “Activity (Minimum Inhibitory Concentration, MIC)” value was 16 µM.
With `CSCC[C@@H]1NC(=O)CNC(=O)[C@H]([C@@H](C)O)NC(=O)[C@@H]2CCCN2C(=O)[C@H](CCSC)NC(=O)CNC(=O)[C@H](CC(N)=O)NC(=O)[C@H](CC(N)=O)NC(=O)[C@H](Cc2ccc(O)cc2)NC(=O)[C@H](C(C)C)NC(=O)[C@H](CCCNC(=N)N)NC(=O)[C@@H](NC(=O)[C@H](CCCNC(=N)N)NC(=O)[C@H](C)NC(=O)[C@H](CCCCN)NC(=O)[C@H](CCCCN)NC(=O)[C@H](CCCNC(=N)N)NC(=O)[C@@H](N)CCCCN)CSSC[C@@H](C(=O)O)NC(=O)[C@H](Cc2c[nH]c3ccccc23)NC(=O)[C@H](CCCNC(=N)N)NC(=O)[C@H](Cc2ccc(O)cc2)NC1=O` [H5A] (H-KRKKARCRVYNNGMPTGMYRWC-OH; disulfide 7-22) the “Activity (Minimum Inhibitory Concentration, MIC)” value was 1 µM.
With `CSCC[C@@H]1NC(=O)CNC(=O)[C@H]([C@@H](C)O)NC(=O)[C@@H]2CCCN2C(=O)[C@H](CCSC)NC(=O)CNC(=O)[C@H](CC(N)=O)NC(=O)[C@H](CC(N)=O)NC(=O)[C@H](Cc2ccc(O)cc2)NC(=O)[C@H](C(C)C)NC(=O)[C@@H](CCCNC(=N)N)NC(=O)[C@@H](NC(=O)[C@H](CCCNC(=N)N)NC(=O)[C@H](Cc2c[nH]cn2)NC(=O)[C@H](CCCCN)NC(=O)[C@H](CCCCN)NC(=O)[C@H](CCCNC(=N)N)NC(=O)[C@@H](N)CCCCN)CSSC[C@@H](C(=O)O)NC(=O)[C@H](Cc2c[nH]c3ccccc23)NC(=O)[C@H](CCCNC(=N)N)NC(=O)[C@H](Cc2ccc(O)cc2)NC1=O` [R8Rd] (H-KRKKHRC[dR]VYNNGMPTGMYRWC-OH; disulfide 7-22; N-terminus assumed) the “Activity (Minimum Inhibitory Concentration, MIC)” value was 63 µM.
With `CSCC[C@@H]1NC(=O)CNC(=O)[C@H]([C@@H](C)O)NC(=O)[C@@H]2CCCN2C(=O)[C@H](C)NC(=O)CNC(=O)[C@H](CC(N)=O)NC(=O)[C@H](CC(N)=O)NC(=O)[C@H](Cc2ccc(O)cc2)NC(=O)[C@H](C(C)C)NC(=O)[C@H](CCCNC(=N)N)NC(=O)[C@@H](NC(=O)[C@H](CCCNC(=N)N)NC(=O)[C@H](Cc2c[nH]cn2)NC(=O)[C@H](CCCCN)NC(=O)[C@H](CCCCN)NC(=O)[C@H](CCCNC(=N)N)NC(=O)[C@@H](N)CCCCN)CSSC[C@@H](C(=O)O)NC(=O)[C@H](Cc2c[nH]c3ccccc23)NC(=O)[C@H](CCCNC(=N)N)NC(=O)[C@H](Cc2ccc(O)cc2)NC1=O` [M14A] (H-KRKKHRCRVYNNGAPTGMYRWC-OH; disulfide 7-22) the “Activity (Minimum Inhibitory Concentration, MIC)” value was 16 µM.
For `CSCC[C@@H]1NC(=O)CNC(=O)[C@H]([C@@H](C)O)NC(=O)[C@@H]2CCCN2C(=O)[C@H](CCSC)NC(=O)CNC(=O)[C@H](CC(N)=O)NC(=O)[C@H](CC(N)=O)NC(=O)[C@H](Cc2ccc(O)cc2)NC(=O)[C@H](C(C)C)NC(=O)[C@H](CCCNC(=N)N)NC(=O)[C@@H](NC(=O)[C@H](CCCNC(=N)N)NC(=O)[C@H](Cc2c[nH]cn2)NC(=O)[C@H](CCCCN)NC(=O)[C@H](CCCCN)NC(=O)[C@H](CCCNC(=N)N)NC(=O)[C@H](C)N)CSSC[C@@H](C(=O)O)NC(=O)[C@H](Cc2c[nH]c3ccccc23)NC(=O)[C@H](CCCNC(=N)N)NC(=O)[C@H](Cc2ccc(O)cc2)NC1=O` [K1A] (H-ARKKHRCRVYNNGMPTGMYRWC-OH; disulfide 7-22), the “Activity (Minimum Inhibitory Concentration, MIC)” value was 1 µM.
With KRKKHRSRVYNNGMPTGMYRWC-OH [C7S] the “Activity (Minimum Inhibitory Concentration, MIC)” value was 63 µM.
KRKKHRCRVYNNGMPTGMYRWS [C22S] was tested, and the “Activity (Minimum Inhibitory Concentration, MIC)” value was 250 µM.
With KRKKHRSRVYNNGMPTGMYRWS [C7S-C22S] the “Activity (Minimum Inhibitory Concentration, MIC)” value was 63 µM.
In the case of `CSCC[C@@H]1NC(=O)CNC(=O)[C@H]([C@@H](C)O)NC(=O)[C@@H]2CCCN2C(=O)[C@H](CCSC)NC(=O)CNC(=O)[C@H](CC(N)=O)NC(=O)[C@@H](CC(N)=O)NC(=O)[C@H](Cc2ccc(O)cc2)NC(=O)[C@H](C(C)C)NC(=O)[C@H](CCCNC(=N)N)NC(=O)[C@@H](NC(=O)[C@H](CCCNC(=N)N)NC(=O)[C@H](Cc2c[nH]cn2)NC(=O)[C@H](CCCCN)NC(=O)[C@H](CCCCN)NC(=O)[C@H](CCCNC(=N)N)NC(=O)[C@@H](N)CCCCN)CSSC[C@@H](C(=O)O)NC(=O)[C@H](Cc2c[nH]c3ccccc23)NC(=O)[C@H](CCCNC(=N)N)NC(=O)[C@H](Cc2ccc(O)cc2)NC1=O` [N11Nd] (H-KRKKHRCRVY[dN]NGMPTGMYRWC-OH; disulfide 7-22; N-terminus assumed), the “Activity (Minimum Inhibitory Concentration, MIC)” value is reported as > 1000 µM.
For `CSCC[C@@H]1NC(=O)CNC(=O)[C@H]([C@@H](C)O)NC(=O)[C@@H]2CCCN2C(=O)[C@H](CCSC)NC(=O)CNC(=O)[C@H](CC(N)=O)NC(=O)[C@H](CC(N)=O)NC(=O)[C@H](Cc2ccc(O)cc2)NC(=O)[C@H](C(C)C)NC(=O)[C@H](CCCNC(=N)N)NC(=O)[C@@H](NC(=O)[C@H](CCCNC(=N)N)NC(=O)[C@@H](N)Cc2c[nH]cn2)CSSC[C@@H](C(=O)O)NC(=O)[C@H](Cc2c[nH]c3ccccc23)NC(=O)[C@H](CCCNC(=N)N)NC(=O)[C@H](Cc2ccc(O)cc2)NC1=O` [H5-C22] (H-HRCRVYNNGMPTGMYRWC-OH; disulfide 3-18; N-terminus assumed), the “Activity (Minimum Inhibitory Concentration, MIC)” value was 16 µM.

Same assay, conditions: S. aureus DPC5246, agar well diffusion MIC
With `CSCC[C@@H]1NC(=O)CNC(=O)[C@H]([C@@H](C)O)NC(=O)[C@@H]2CCCN2C(=O)[C@H](CCSC)NC(=O)CNC(=O)[C@H](CC(N)=O)NC(=O)[C@H](CC(N)=O)NC(=O)[C@H](Cc2ccc(O)cc2)NC(=O)[C@H](C(C)C)NC(=O)[C@@H](CCCNC(=N)N)NC(=O)[C@@H](NC(=O)[C@H](CCCNC(=N)N)NC(=O)[C@H](Cc2c[nH]cn2)NC(=O)[C@H](CCCCN)NC(=O)[C@H](CCCCN)NC(=O)[C@H](CCCNC(=N)N)NC(=O)[C@@H](N)CCCCN)CSSC[C@@H](C(=O)O)NC(=O)[C@H](Cc2c[nH]c3ccccc23)NC(=O)[C@H](CCCNC(=N)N)NC(=O)[C@H](Cc2ccc(O)cc2)NC1=O` [R8Rd] (H-KRKKHRC[dR]VYNNGMPTGMYRWC-OH; disulfide 7-22; N-terminus assumed) the “fold reduction in activity compared with bactofencin A (wild type)” value (“fold reduction in activity” for short) was 63 fold.
With KRKKHRSRVYNNGMPTGMYRWC-OH [C7S] the “fold reduction in activity” value was 63 fold.
With KRKKHRCRVYNNGMPTGMYRWS [C22S] the “fold reduction in activity” value was 250 fold.
